{"source": "patent US20240207253A1", "about": "“Inhibitors of CDR1 for Reversal of Azole Drug Resistance in Fungal Infections” (UNM RAINFOREST INNOVATIONS, priority 2021, published 2024)", "key": {"[1]": {"system": "C. albicans strain 5674", "test": "Adenylate kinase (AK) release assay on assay supernatant", "format": "cell-based", "details": "caspofungin 50 ng/ml, positive control", "protocol": "In addition to the output from the dose-response assays, we included an experimental step designed to identify compounds with fungicidal potential. Specifically, the inventors used the assay supernatant to interrogate for the presence of adenylate kinase (AK), an enzyme that is released from the cells when the cell wall or plasma membrane integrity is compromised. Low-dose caspofungin (50 ng/ml), an echinocandin known for its antifungal property due to disruption of the cell wall, was used as a positive control."}, "[2]": {"system": "C. glabrata AR Bank #0314", "test": "CLSI microbroth dilution checkerboard assay with fluconazole", "format": "cell-based", "details": "Nakaseomyces glabratus; fluconazole alone", "experimental": "(§1) Overexpression of Cdr1p has been implicated in azole resistance in many fluconazole-resistant fungal pathogens. […] The inventors used the CLSI microbroth dilution method of antifungal susceptibility testing in a checkerboard assay format, where serial 2-fold dilutions of FLC (from 64 μg/ml) were tested in combination with serial 2-fold dilutions of a candidate hit compound (from 50 μg/ml). […] The data from three biological replicates was next used to assess synergy between each compound of interest and FLC. For these purposes, the inventors used the program SynScreen, which extrapolates non-linear fits of dose-response data to determine synergy using the Bliss independence and Loewe additivity analysis models. […] The Bliss Beta coefficient that the program calculates for all combinations further describes potential synergism (if >1), antagonism (if <1), or an additive effect (equal to 1).\n(§2) For the purposes of reporting the effect of the test compound on FLC potentiation, the inventors excluded from analyses rows of combinations where TPIML compound alone affects yeast growth. C. krusei are intrinsically resistant to azoles and is predominantly due to a significant reduction of inhibition of the target, cytochrome P450 lanosterol 14α-demethylase, though the role of increased expression of the CaCdr1p homolog in resistance has also been described."}, "[3]": {"system": "C. krusei reference strain, ATCC 6258", "test": "CLSI microbroth dilution checkerboard assay with fluconazole", "format": "cell-based", "details": "Pichia kudriavzevii, ATCC6258; fluconazole alone", "experimental": "as §1, §2"}, "[4]": {"system": "C. parapsilosis AR Bank #0337", "test": "CLSI microbroth dilution checkerboard assay with fluconazole", "format": "cell-based", "details": "Lodderomyces parapsilosis; fluconazole alone", "experimental": "as §1, §2"}, "[5]": {"system": "Cdr1p-GFP", "test": "Cdr1p-GFP whole cell fluorescence-based flow cytometry assay (primary screen and dose response)", "set-up": "species or system C. albicans", "details": "10 μM, positive control, isolate 5674 CDR1-GFP", "description": "Utilizing the novel approach of inhibition of CDR1 (Cdr1p) expression, initial experiments were directed to screening libraries of small molecules using a high-throughput whole cell fluorescence-based flow cytometry assay to identify agents that inhibit expression of CDR1-GFP in an azole-resistant C. albicans strain.\nEach sample in the scaffold ranking screen contains only mixtures of compounds with the shared core scaffold. All compounds in a specific mixture are represented in approximately equal molar concentrations. The inventors performed the screen using the C. albicans azole-resistant, clinical isolate 5674, which was modified to carry a CDR1 allele tagged with GFP-encoding sequence. Modulation of Cdr1p-GFP levels in response to scaffold mixtures was assessed relative to basal levels (Response Ratio), from which scaffolds were ranked. […] The inventors used tacrolimus at 10 μM concentration as positive control in all screening assays.\nThe assay readout, GFP fluorescence levels as detected by a flow cytometer, is directly related to the levels of Cdr1p of the cell. Thus, flow cytometry data from each screen provides direct evidence that Cdr1p is modulated by hit compounds. […] False-positive hits were identified in follow-up dose-response assays where the effect of serial dilutions of each compound on Cdr1p-GFP levels was assessed."}}, "data": [{"smiles": "CC[C@H](C)C[C@H](C)CCCCCCCCC(=O)N[C@H]1C[C@@H](O)[C@@H](NCCN)NC(=O)[C@@H]2[C@@H](O)CCN2C(=O)[C@H]([C@H](O)CCN)NC(=O)[C@H]([C@H](O)[C@@H](O)c2ccc(O)cc2)NC(=O)[C@@H]2C[C@@H](O)CN2C(=O)[C@H]([C@@H](C)O)NC1=O", "note": "[caspofungin]", "values": [{"measurement": "AK fold-increase", "setting": "[1]", "value": 27}]}, {"smiles": "OC(Cn1cncn1)(Cn1cncn1)c1ccc(F)cc1F", "note": "[fluconazole]", "values": [{"measurement": "MIC50", "setting": "[2]", "value": 64, "unit": "µg/mL"}, {"measurement": "MIC50", "setting": "[3]", "value": 8, "unit": "µg/mL"}, {"measurement": "MIC50", "setting": "[4]", "value": 64, "unit": "µg/mL"}]}, {"smiles": "C=CC[C@@H]1/C=C(\\C)C[C@H](C)C[C@H](OC)[C@H]2O[C@@](O)(C(=O)C(=O)N3CCCC[C@H]3C(=O)O[C@H](/C(C)=C/[C@@H]3CC[C@@H](O)[C@H](OC)C3)[C@H](C)[C@@H](O)CC1=O)[C@H](C)C[C@@H]2OC", "note": "[tacrolimus]", "values": [{"measurement": "Response Ratio (Cdr1p-GFP levels relative to basal levels)", "setting": "[5]", "value": 0.8}]}]}
